Consider 19 compounds from ChEMBL document CHEMBL1201862, “PubChem BioAssay data set” (2004).

Structures are written as SMILES. The source made the active and inactive calls.

Test [1] deals with Glyceraldehyde-3-phosphate dehydrogenase (Homo sapiens, UniProt P04406).
Test [2] deals with T1, Calpain-2 catalytic subunit (Sus scrofa, UniProt P43367).
T1 sequence (P43367 whole entry): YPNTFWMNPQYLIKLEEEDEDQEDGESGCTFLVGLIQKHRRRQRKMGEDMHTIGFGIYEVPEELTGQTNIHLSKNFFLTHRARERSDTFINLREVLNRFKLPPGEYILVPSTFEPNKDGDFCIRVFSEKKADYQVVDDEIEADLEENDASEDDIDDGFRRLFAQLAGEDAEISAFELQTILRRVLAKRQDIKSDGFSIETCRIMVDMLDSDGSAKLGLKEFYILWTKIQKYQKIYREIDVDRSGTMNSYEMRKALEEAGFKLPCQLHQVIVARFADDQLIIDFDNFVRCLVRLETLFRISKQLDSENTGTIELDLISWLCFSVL
Description: pig calpain II inhibitor potency, dose response, biochemical, fluorogenic peptide substrate (AID 1420). Type of test: functional.

The target of test [3] is Eukaryotic translation initiation factor 4E (Mus musculus, UniProt P63073). Description: eIF4E–eIF4G protein interaction inhibitors, dose response, biochemical, TR-FRET (AID 855).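 Also: potency for disrupting eIF4E binding to eIF4GI seen as loss of FRET.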 Type of test: functional.
Sequence of Eukaryotic translation initiation factor 4E (P63073 whole entry): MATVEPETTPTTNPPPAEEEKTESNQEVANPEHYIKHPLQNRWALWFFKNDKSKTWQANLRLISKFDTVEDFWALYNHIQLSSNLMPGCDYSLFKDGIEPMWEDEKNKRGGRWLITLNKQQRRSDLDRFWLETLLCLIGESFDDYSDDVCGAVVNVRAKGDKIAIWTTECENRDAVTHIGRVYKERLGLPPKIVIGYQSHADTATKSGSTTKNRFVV
The target of test [4] is T2, DNA repair protein RAD52 homolog (Homo sapiens, UniProt P43351).
T2 sequence (P43351 whole entry): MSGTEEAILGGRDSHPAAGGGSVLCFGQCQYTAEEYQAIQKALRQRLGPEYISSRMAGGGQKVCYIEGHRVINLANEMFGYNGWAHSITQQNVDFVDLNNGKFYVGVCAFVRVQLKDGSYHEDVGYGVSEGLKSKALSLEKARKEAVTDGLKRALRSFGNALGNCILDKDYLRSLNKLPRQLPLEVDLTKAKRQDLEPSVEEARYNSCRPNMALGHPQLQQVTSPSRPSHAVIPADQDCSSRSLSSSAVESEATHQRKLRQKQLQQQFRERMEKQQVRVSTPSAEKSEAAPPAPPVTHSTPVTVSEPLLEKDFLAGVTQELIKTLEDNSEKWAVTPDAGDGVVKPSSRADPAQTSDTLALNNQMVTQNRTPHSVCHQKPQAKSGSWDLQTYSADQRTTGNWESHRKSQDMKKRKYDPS
In kind it is functional, biochemical.

For test [5], the target named is T3, Ubiquitin-conjugating enzyme E2 N (Homo sapiens, UniProt P61088).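 Also: Dose-response confirmation in a TR-FRET assay detecting UBC13-driven polyubiquitin chain formation, inhibition measured.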
T3 sequence (P61088 whole entry): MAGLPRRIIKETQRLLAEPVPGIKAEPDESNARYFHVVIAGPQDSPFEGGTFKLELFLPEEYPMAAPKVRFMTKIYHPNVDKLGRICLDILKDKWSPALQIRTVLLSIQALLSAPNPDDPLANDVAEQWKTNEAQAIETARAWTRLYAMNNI
In kind it is functional.

Test [6] is described as follows: intracellular Trypanosoma cruzi inhibitors in host cells – cell-based, plate reader, cherry-pick samples, set 3, dose response (AID 651818).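 Also: compounds incubated with infected cells for about four days.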 In kind it is functional.
Another test concerns the target Estrogen receptor beta (Homo sapiens, UniProt Q92731).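 Also: recombinant ER-beta bound to coactivator SRC1 peptide in presence of estradiol agonist; inhibitors block coactivator peptide binding and lower the FRET signal.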
Test [7] deals with T4, DNA repair and recombination protein RAD54-like (Homo sapiens, UniProt Q92698).
T4 sequence (Q92698 whole entry): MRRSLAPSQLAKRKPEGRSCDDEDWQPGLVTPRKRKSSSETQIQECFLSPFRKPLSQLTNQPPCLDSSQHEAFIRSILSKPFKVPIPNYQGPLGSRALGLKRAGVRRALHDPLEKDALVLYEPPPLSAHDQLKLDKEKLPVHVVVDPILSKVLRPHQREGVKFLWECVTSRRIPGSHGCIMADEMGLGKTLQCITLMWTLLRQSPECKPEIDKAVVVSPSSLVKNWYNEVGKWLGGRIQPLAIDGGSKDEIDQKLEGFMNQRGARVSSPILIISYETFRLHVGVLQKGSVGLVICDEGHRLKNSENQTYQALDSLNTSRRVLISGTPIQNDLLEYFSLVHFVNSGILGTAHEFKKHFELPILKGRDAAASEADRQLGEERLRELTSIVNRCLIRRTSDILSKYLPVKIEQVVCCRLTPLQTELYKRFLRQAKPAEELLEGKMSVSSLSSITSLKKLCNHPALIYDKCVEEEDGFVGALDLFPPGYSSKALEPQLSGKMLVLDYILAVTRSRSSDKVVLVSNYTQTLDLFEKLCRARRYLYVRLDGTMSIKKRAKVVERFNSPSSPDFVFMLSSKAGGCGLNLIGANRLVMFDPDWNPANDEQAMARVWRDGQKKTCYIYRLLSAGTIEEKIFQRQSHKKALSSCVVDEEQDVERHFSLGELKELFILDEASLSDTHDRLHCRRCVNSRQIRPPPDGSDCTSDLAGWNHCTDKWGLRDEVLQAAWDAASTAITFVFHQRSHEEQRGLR
Description: inhibitors of human RAD54 branch migration, confirmation, biochemical, fluorescence, cherry-picked samples, dose series (AID 651657). Type of test: functional.

Test [8] concerns BJ. Description: cytotoxicity toward BJ-TERT fibroblasts, dose response, cell-based, RAS-independent, luminescence (AID 1933). Type of test: functional. Conditions: Homo sapiens.
Test [9] in a line: growth suppression of beta-catenin-knockout colon cells, dose response, cell-based, HCT116, human colon tumor (AID 1045).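 Also: HCT116 colon tumor cells with beta catenin knocked out; cells exposed to compound for 60 hours.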 Type of test: functional.
The test system of test [10] is BJ. Description: cytotoxicity toward BJ-TERT-LT-ST fibroblasts, dose response, cell-based, RAS-independent, luminescence (AID 1935).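 Also: BJ fibroblasts immortalized with TERT plus LT and ST oncogenes.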 Type of test: functional. Conditions: Homo sapiens.
Test [11] addresses T5, Short transient receptor potential channel 4 (Mus musculus, UniProt Q9QUQ5).
T5 sequence (Q9QUQ5 whole entry): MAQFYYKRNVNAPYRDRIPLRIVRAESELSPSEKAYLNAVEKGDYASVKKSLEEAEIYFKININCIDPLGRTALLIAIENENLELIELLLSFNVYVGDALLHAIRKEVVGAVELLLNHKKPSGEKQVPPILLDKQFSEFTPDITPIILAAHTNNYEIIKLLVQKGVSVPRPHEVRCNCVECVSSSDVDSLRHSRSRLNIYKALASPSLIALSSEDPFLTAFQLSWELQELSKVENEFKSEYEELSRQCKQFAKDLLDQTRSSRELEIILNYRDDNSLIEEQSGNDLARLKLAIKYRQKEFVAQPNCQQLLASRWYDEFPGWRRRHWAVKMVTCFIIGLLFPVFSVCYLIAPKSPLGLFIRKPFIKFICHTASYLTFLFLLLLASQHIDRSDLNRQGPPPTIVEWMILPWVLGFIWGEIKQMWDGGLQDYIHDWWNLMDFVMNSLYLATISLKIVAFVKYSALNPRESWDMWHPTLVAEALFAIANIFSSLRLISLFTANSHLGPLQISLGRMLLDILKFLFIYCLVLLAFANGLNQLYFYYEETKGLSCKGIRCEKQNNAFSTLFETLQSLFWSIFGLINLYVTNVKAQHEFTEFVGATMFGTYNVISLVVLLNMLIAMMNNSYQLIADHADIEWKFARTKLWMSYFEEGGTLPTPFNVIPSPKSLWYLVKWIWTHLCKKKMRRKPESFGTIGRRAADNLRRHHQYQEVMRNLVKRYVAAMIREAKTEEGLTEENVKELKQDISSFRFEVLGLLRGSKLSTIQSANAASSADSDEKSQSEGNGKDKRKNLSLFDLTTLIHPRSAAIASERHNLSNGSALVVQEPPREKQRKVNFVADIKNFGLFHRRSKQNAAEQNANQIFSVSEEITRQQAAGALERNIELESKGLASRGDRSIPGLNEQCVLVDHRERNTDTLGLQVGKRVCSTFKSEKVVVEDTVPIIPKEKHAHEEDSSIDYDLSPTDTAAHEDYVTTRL
Description: mouse TRPC4 channel activators, dose response, cell-based, HEK293 TRPC4/mu-opioid, Fluo-4 calcium (AID 434937). Type of test: functional.

The nature of test [12]: growth suppression of PTEN-null colon cells, dose response, cell-based, HCT116 PTEN knockout (AID 1047).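 Also: HCT116 colon tumor cells with PTEN knocked out; cells exposed to compound for 60 hours before readout; potency for loss of cell viability measured by luminescence.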 In kind it is functional.
The subject of test [13] is BJ. Description: cells. In kind it is functional, cell-based. As to conditions: Homo sapiens.
Test [14] is described as follows: cytotoxicity toward DRD oncogenic fibroblasts, dose response, cell-based, non-viral oncogenic, luminescence (AID 1934). In kind it is functional. Conditions: Homo sapiens.
Test [15] deals with T6, Heat shock factor protein 1 (Mus musculus, UniProt P38532).
T6 sequence (P38532 whole entry): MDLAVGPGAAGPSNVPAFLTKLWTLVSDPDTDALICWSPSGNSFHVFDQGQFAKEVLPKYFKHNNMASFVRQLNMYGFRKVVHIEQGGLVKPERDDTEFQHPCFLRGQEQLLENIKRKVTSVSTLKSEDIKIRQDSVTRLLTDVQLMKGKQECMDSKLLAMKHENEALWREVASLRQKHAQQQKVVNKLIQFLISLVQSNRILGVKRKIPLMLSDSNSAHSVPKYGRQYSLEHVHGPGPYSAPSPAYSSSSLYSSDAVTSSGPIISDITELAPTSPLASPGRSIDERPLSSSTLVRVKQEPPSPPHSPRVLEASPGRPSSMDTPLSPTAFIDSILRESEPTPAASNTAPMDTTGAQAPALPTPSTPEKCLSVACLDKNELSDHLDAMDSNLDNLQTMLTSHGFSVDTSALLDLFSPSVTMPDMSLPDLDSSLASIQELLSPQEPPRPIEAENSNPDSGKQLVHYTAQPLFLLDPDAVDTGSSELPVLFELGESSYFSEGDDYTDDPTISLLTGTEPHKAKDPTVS
Description: inhibition of MG132-induced HSE-luciferase signal, confirmation, cell-based, NIH3T3, luminescence, dose retest (AID 2382).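 Also: NIH3T3 fibroblasts with HSF1-driven luciferase reporter stressed by proteasome inhibitor MG132; luminescence from HSF1-driven luciferase expression after 8 hours of MG132 stress.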 In kind it is functional.

Another test deals with H4. Description: Luminescence Cell-Based Dose Response HTS to Identify Activators of 5'UTR Stem-Loop Driven Prion Protein mRNA Translation in H4 Neuroglioblastoma Cells. [Related pubchem assays: 1829 (Project Summary), 1814 (Primary HTS)]. In kind it is functional. Conditions: Homo sapiens.
The nature of test [16]: THP-1 cell cytotoxicity, dose response, cytotoxicity control for non-replicating M. tuberculosis project (AID 489025). In kind it is functional.
Test [17] is described as follows: Luminescence Cell-Based Dose Response HTS to Identify Activators of Luciferase Translation or Activity in H4 […] Cells. [Related pubchem assays: 1829 (Project Summary), 1814 (Primary HTS)]. Type of test: functional.

Sequence of Estrogen receptor beta (Q92731 whole entry): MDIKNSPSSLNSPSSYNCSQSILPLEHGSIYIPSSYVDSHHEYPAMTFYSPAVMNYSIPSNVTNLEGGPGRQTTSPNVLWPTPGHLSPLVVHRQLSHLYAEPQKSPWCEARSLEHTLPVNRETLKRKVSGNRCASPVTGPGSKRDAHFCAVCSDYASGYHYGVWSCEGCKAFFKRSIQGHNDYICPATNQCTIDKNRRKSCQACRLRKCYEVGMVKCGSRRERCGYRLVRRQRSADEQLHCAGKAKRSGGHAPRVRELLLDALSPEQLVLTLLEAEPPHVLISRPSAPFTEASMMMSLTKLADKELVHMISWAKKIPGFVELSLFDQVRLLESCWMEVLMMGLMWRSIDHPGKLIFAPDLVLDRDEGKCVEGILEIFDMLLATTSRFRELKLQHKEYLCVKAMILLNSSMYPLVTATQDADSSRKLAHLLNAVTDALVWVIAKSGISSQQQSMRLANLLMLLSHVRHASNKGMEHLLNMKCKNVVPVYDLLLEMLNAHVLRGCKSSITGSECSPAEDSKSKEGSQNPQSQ
Sequence of Glyceraldehyde-3-phosphate dehydrogenase (P04406 whole entry): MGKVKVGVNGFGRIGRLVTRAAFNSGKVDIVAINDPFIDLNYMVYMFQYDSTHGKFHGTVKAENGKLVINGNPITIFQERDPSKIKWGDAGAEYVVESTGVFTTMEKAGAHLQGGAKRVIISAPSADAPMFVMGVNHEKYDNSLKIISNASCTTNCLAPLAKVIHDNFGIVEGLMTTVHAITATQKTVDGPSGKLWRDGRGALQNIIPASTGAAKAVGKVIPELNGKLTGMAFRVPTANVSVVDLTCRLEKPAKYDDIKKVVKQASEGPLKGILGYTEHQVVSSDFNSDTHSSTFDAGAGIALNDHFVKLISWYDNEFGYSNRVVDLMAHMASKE

Regarding `O=C(CCC1CCCC1)Nc1nnc[nH]1`, in test [1], the IC50 was > 10 µM (inconclusive). For `Cn1c(N)c(C(=O)COC(=O)CC2CC3CCC2C3)c(=O)n(C)c1=O` (configuration not stated), the IC50 in [2] is 2.16 µM (active).

As for `Clc1ccc(OCCCn2cncn2)cc1Cl`, the IC50 in test [3] is > 64 µM (inactive). As for `CCC[C@@H](CN1CCC[C@H]1CN1C(N)=NC[C@H]1CC(C)C)N1C[C@@H]([C@H](C)CC)N(CCc2ccc(Cl)c(Cl)c2)C1=N`, the AC50 in [4] was 12.4 µM (active). Further, the IC50 in test [5] is > 20 µM (inactive). Take `C[C@@H]1CCCCO[C@H](CN(C)Cc2ccc(Cl)c(Cl)c2)[C@@H](C)CN([C@H](C)CO)C(=O)c2cc(NS(=O)(=O)c3ccc(F)cc3)ccc2O1`: in test [6], the AC50 was 4.79 µM (active).

Consider `CN(C)CCCN=C(S)N(CCN(C)C)Cc1cc2cc3c(cc2nc1O)OCCO3`, for which, in test [4], the AC50 is 5.91 µM (active). As to `COc1ccc(S(=O)(=O)N(C)C[C@@H]2Oc3c(NS(=O)(=O)c4ccccc4)cccc3C(=O)N([C@@H](C)CO)C[C@@H]2C)cc1`, the half-maximal activity concentration (AC50) in test [6] is 12.9 µM (active).

As to `COc1ccc(C(C)=O)c2c(O)cccc12`, in test [2], the IC50 was 0.917 µM (not active). Consider `Cc1n[nH]c(C)c1S(=O)(=O)N(CC(=O)N1CCc2ccccc21)c1ccc(C(C)C)cc1`, for which the IC50 on Estrogen receptor beta was > 50 µM (not active). Consider `COc1ccc(-c2nc(C(=O)NCCCN3CCOCC3)cc3c2[nH]c2ccccc23)cc1OC`, for which the AC50 in test [4] is 4.84 µM (active); in test [7], 13.7 µM (active). As for `Cc1nc2nc(C)c(C)nc2nc1C`, in test [7], the AC50 is 34.7 µM (active).

For `C[C@@H]1CCCCO[C@@H](CN(C)Cc2ccc(Cl)c(Cl)c2)[C@@H](C)CN([C@H](C)CO)C(=O)c2cc(NC(=O)Nc3ccc4c(c3)OCO4)ccc2O1`, the AC50 in test [6] is 3.68 µM (active). Take `CC(C)Cc1ccc(C(C)C(=O)OCC(=O)c2c[nH]c3ccccc23)cc1` (configuration not stated): the IC50 in [2] is reported as 6.65 µM (not active). Take `CCN(CC)CCCNC(=O)c1cc2c(-c3ccc(Cl)cc3)nn(C)c2s1`: the EC50 is 9.1 µM (active) with BJ [8]; 4.29 µM (active) in [9]; 12.1 µM (inconclusive) in the test on BJ [10]; 0.335 µM (active) in test [11]; 5.12 µM (active) in [12]; 21.8 µM (active) with BJ [13]. In addition, the 50% effective concentration (EC50) in test [14] is 10.4 µM (active). Besides, the AC50 in test [7] was 35.9 µM (active). Take `Oc1cc2c(cc1C(c1ccc(Br)cc1)N1CCCC1)OCO2` (configuration not stated): the IC50 in test [3] was 50 µM (inactive). In the case of `Cc1ccc(C)c(SCC(=O)NC(=O)Nc2ccc3c(c2)OCCO3)c1`, the IC50 in [2] is < 0.4 µM (not active). `CC(=O)Nc1cc(-c2cccc(C(=O)NCCN(C)C)c2)cn2c(-c3ccc(S(C)(=O)=O)cc3)cnc12`: the AC50 in test [4] is 2.7 µM (active); in test [7], 25.8 µM (active). In the case of `Cn1c2c(c(=O)n(C)c1=O)C(CC(=O)Nc1ccccc1)C(=O)N2` (configuration not stated), in test [2], the IC50 is given as 2.62 µM (not active). The EC50 in test [15] was > 195 µM (not active). `O=C(CCC1CCCC1)Nc1ccc(Br)cn1`: the values for the EC50 (in the test on H4; in test [17]) were > 120 µM (not active) and 0.805 µM (active), respectively. In [16], the CC50 was > 40 µM (active).
